Data reported in ChEMBL document CHEMBL1155566, “Antifeedant activity of withanolides from Salpichroa origanifolia on Musca domestica” (J Nat Prod, 2000).
Active and inactive are the calls of the source. No cut-off for these calls is given here.

What was measured:
Musca domestica [1] = assay: Antifeedant activity against Musca domestica CIPEIN larvae assessed as time needed to pupate 50% at 500 ppm; type: functional
Musca domestica [2] = assay: Antifeedant activity in Musca domestica CIPEIN larvae assessed as time needed to pupate 50% at 100 ppm; type: functional
Musca domestica [3] = assay: Antifeedant activity against Musca domestica CIPEIN larvae assessed as inhibition of larvae development after 18 days; type: functional, organism-based
Musca domestica [4] = assay: Antifeedant activity against Musca domestica CIPEIN larvae supplied with high yeast and milk concentration assessed as time needed to pupate 50%; type: functional
Musca domestica [5] = assay: Antifeedant activity against Musca domestica CIPEIN larvae supplied with medium yeast and milk concentration assessed as time needed to pupate 50%; type: functional
Musca domestica [6] = assay: Antifeedant activity against Musca domestica CIPEIN larvae assessed as larval mortality at 200 ppm after 18 days; type: functional

## CC(=O)Oc1cc([C@H](C)[C@@H]2C[C@@H]3O[C@@H]3[C@H](OC(C)=O)O2)cc2c1[C@@H]1C[C@@H]3O[C@@]34CC=CC(=O)[C@]4(C)[C@H]1CC2
Musca domestica [1]
  Activity: Active

## C[C@@H](c1ccc2c(c1)CC[C@H]1[C@H]2CC(=O)[C@@]2(O)CC=CC(=O)[C@]12C)[C@@H]1C[C@@H]2O[C@@H]2C(=O)O1
Musca domestica [1]
  Activity: inactive

## C[C@@H](c1ccc2c(c1)CC[C@H]1[C@H]2C[C@@H]2O[C@@]23CC=CC(=O)[C@]13C)[C@@H]1C[C@@H]2O[C@@H]2C(=O)O1
Musca domestica [1]
  Activity: inactive

## C[C@@H](c1ccc2c(c1)CC[C@H]1[C@H]2C[C@@H]2O[C@@]23CC=CC(=O)[C@]13C)[C@@H]1C[C@@H]2O[C@@H]2[C@H](O)O1 [SALPICHROLIDE A]
Musca domestica [2]
  Activity: 7.9 days
Musca domestica [3]
  EC50: 290 ppm
Musca domestica [4]
  Activity: 6.9 days
Musca domestica [5]
  Activity: 12.2 days
Musca domestica [1]
  Activity: 10.3 days
Musca domestica [6]
  Activity: 100%

## C[C@@H](c1ccc2c(c1)CC[C@H]1[C@H]2C[C@@H](O)[C@@]2(O)CC=CC(=O)[C@]12C)[C@@H]1C[C@@H]2O[C@@H]2[C@H](O)O1 [SALPICHROLIDE C]
Musca domestica [2]
  Activity: 7.8 days
Musca domestica [3]
  EC50: 310 ppm
Musca domestica [1]
  Activity: 8.1 days
Musca domestica [6]
  Activity: 100%

## C[C@@H](c1cc(O)c2c(c1)CC[C@H]1[C@H]2C[C@@H]2O[C@@]23CC=CC(=O)[C@]13C)[C@@H]1C[C@@H]2O[C@@H]2[C@H](O)O1 [SALPICHROLIDE G]
Musca domestica [2]
  Activity: 7.7 days
Musca domestica [3]
  EC50: 203 ppm
Musca domestica [1]
  Activity: 8 days
Musca domestica [6]
  Activity: 100%
